Where two headings read alike, the source gives them in different places.
Target: T1, rhIKK1/IKK2 heterodimer (Homo sapiens, UniProt O14920+O15111)
T1 construct: made in house; host or cells: insect cells (baculovirus coinfection; SF9)
T1 sequence (O14920 1-756): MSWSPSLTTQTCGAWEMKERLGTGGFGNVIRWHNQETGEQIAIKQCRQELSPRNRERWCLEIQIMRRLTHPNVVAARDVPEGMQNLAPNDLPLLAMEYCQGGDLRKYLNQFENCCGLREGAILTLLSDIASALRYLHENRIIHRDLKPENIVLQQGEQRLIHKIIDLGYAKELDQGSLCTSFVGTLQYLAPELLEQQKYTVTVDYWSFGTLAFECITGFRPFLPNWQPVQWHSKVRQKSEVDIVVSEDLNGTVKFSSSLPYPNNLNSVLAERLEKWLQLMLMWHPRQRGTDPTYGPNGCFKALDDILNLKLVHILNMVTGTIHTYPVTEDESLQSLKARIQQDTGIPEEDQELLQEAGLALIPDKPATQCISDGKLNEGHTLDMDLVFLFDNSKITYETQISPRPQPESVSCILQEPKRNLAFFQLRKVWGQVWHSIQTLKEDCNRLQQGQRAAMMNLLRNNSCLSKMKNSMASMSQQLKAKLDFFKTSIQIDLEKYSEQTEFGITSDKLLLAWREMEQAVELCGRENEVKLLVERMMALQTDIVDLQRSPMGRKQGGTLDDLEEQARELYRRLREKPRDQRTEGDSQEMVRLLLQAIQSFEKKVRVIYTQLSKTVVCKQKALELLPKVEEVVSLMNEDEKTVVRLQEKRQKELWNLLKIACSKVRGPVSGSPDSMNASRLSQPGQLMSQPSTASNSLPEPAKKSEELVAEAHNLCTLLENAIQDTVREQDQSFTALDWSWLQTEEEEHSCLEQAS
T1 sequence (O15111 1-745): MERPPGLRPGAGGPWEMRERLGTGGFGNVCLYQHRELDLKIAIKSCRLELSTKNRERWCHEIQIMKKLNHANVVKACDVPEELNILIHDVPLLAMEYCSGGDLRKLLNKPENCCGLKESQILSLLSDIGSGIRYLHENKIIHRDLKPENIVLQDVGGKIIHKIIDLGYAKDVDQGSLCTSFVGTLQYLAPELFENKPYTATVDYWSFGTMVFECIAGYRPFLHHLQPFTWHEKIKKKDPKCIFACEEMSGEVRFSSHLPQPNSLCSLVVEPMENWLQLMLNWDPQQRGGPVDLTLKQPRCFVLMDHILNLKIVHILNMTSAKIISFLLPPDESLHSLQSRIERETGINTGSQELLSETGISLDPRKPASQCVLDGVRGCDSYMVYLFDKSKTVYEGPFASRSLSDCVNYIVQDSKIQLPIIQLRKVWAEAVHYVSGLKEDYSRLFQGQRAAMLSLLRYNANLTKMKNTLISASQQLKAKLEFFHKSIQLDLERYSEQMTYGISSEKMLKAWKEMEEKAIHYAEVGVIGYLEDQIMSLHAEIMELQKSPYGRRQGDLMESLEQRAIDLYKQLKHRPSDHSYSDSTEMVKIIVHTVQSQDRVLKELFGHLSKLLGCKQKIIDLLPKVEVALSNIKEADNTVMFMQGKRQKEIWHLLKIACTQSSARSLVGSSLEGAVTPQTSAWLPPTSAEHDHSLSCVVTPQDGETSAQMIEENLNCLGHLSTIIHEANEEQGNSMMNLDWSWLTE
Assay: IKK Heterodimer Resin Enzyme Assay
Assay type: biochemical
From the text: cDNAs of human IKK1 and IKK2 were amplified by reverse transcriptase-polymerase chain reaction from human placental RNA (Clonetech). hIKK1 was subcloned into pFastBac HTa (Life Technologies) and expressed as N-terminal His6-tagged fusion protein. The hIKK2 cDNA was amplified using a reverse oligonucleotide primer which incorporated the peptide sequence for a FLAG-epitope tag at the C-terminus of the IKK2 coding region ([…]). The hIKK2:FLAG cDNA was subcloned into the baculovirus vector pFastBac. The rhIKK2 ([…]) mutant was constructed in the same vector used for wild type rhIKK2 using a QuikChange™ mutagenesis kit (Stratagene). Viral stocks of each construct were used to infect insect cells grown in 40L suspension culture. […] Cell lysates were stored at −80° C. until purification of the recombinant proteins was undertaken as described below.
Isolation of rhIKK1/IKK2 Heterodimer
The heterodimer enzyme was produced by coinfection in a baculovirus system (FLAG IKK2/IKK1 His; MOI=0.1 and I=72 hrs). Infected cells were centrifuged and the cell pellet (10.0 g) was suspended in 50 ml of buffer A. The protein suspension was microfluidized and centrifuged at 100,000×g for 45 min. Imidazole was added to the supernatant to a final concentration of 10 mM. The protein was allowed to bind 25 ml of Ni-NTA resin by mixing for 2 hrs. The protein-resin slurry was poured into a 25 ml column and washed with 250 ml of buffer A containing 10 mM imidazole followed by 125 ml of buffer A containing 50 mM imidazole. Buffer A, containing 300 mM imidazole, was then used to elute the protein. A 75 ml pool was collected and NP-40 was added to a final concentration of 0.1%. […] The protein-resin slurry was then centrifuged for 5 min at 2,000 rpm. The supernatant was collected and the resin re-suspended in 100 ml of buffer C containing 0.1% NP-40. The resin was washed with 375 ml of buffer C containing 0.1% NP-40. The protein-resin was poured into a 25 ml column and the enzyme eluted using buffer B containing FLAG peptide. Enzyme fractions (100 ml) were collected and concentrated to 20 ml using an Amicon membrane with molecular weight cut-off of 30 kDa. Bovine serum albumin was added to the concentrated enzyme to final concentration of 0.1%. The enzyme was then aliquoted and stored at −80° C.
IKK Heterodimer Resin Enzyme Assay
Resin was allowed to settle for one hour and 50 ul of supernatant was removed to a Micolite-2 flat bottom plate (Dynex). 150 μl of scintillation fluid (Microscint 40) (Packard) was added to each well. Incorporation of [γ-^33P] ATP was measured using a Top-Count NXT (Packard).

[1] = Table 1, values given as bins, read-out: HetD (IKK heterodimer assay values expressed as IC50)

With NC(=O)c1nn(-c2ccc(S(N)(=O)=O)cc2)c2c1ccc1ccc(NC(=O)c3cccc(Br)c3)cc12 [Example 12, 1-[4-(aminosulfonyl)phenyl]-8-[(3-bromobenzoyl)amino]-1H-benzo[g]indazole-3-carboxamide] as the compound, how does the IC50 [1] read?
Its IC50 is at most 1000 nM.

NC(=O)c1nn(-c2ccc(S(N)(=O)=O)cc2)c2c1ccc1ccc(NC(=O)c3cccc(Cl)c3Cl)cc12 [Example 30, 1-[4-(aminosulfonyl)phenyl]-8-[(2,3-dichlorobenzoyl)amino]-1H-benzo[g]indazole-3-carboxamide] was tested. Which IC50 [1] did it give?
Its IC50 is at most 1000 nM.

Which IC50 [1] does the source give for NC(=O)c1nn(-c2ccc(S(N)(=O)=O)cc2)c2c1ccc1ccc(NS(=O)(=O)c3cc(Cl)c(Cl)cc3Cl)cc12 [Example 23, 1-[4-(aminosulfonyl)phenyl]-8-{[(2,4,5-trichlorophenyl)sulfonyl]amino}-1H-benzo[g]indazole-3-carboxamide] here?
The IC50 was 1000 to 10000 nM.

Cc1cccc(S(=O)(=O)Nc2ccc3ccc4c(C(N)=O)nn(-c5ccc(S(N)(=O)=O)cc5)c4c3c2)c1 [Example 18, 1-[4-(aminosulfonyl)phenyl]-8-{[(3-methylphenyl)sulfonyl]amino}-1H-benzo[g]indazole-3-carboxamide] was tested. Which IC50 [1] did it give?
Its IC50 is 10000 to 100000 nM.

With NC(=O)c1nn(-c2ccc(S(N)(=O)=O)cc2)c2c1ccc1ccc(NC(=O)c3c(Cl)cccc3Cl)cc12 [Example 28, 1-[4-(aminosulfonyl)phenyl]-8-[(2,6-dichlorobenzoyl)amino]-1H-benzo[g]indazole-3-carboxamide] as the compound, how does the IC50 [1] read?
The IC50 was at most 1000 nM.

Which IC50 [1] does the source give for NC(=O)c1nn(-c2ccc(S(N)(=O)=O)cc2)c2c1ccc1ccc(NS(=O)(=O)c3ccccc3Cl)cc12 [Example 33, 1-[4-(aminosulfonyl)phenyl]-8-{[(2-chlorophenyl)sufonyl]amino}-1H-benzo[g]indazole-3-carboxamide] here?
The IC50 was 1000 to 10000 nM.

NC(=O)c1nn(-c2ccc(S(N)(=O)=O)cc2)c2c1ccc1ccc(NS(=O)(=O)c3cccc(C(F)(F)F)c3)cc12 [Example 19, 1-[4-(aminosulfonyl)phenyl]-8-({[3-(trifluoromethyl)phenyl]sulfonyl}amino)-1H-benzo[g]indazole-3-carboxamide] was tested. Which IC50 [1] did it give?
The IC50 was 10000 to 100000 nM.

How did the IC50 [1] turn out when NC(=O)c1nn(-c2ccc(S(N)(=O)=O)cc2)c2c1ccc1ccc(NC(=O)c3ccccc3OC(F)(F)F)cc12 [Example 29] was run?
The IC50 was at most 1000 nM.

Which IC50 [1] does the source give for NC(=O)c1nn(-c2ccc(S(N)(=O)=O)cc2)c2c1ccc1ccc(NC(=O)c3ccccc3C(F)(F)F)cc12 [Example 26, 1-[4-(aminosulfonyl)phenyl]-8-{[2-(trifluoromethyl)benzoyl]amino}-1H-benzo[g]indazole-3-carboxamide] here?
The IC50 was at most 1000 nM.

How did the IC50 [1] turn out when N#Cc1cccc(C(=O)Nc2ccc3ccc4c(C(N)=O)nn(-c5ccc(S(N)(=O)=O)cc5)c4c3c2)c1 [Example 17, 1-[4-(aminosulfonyl)phenyl]-8-[(3-cyanobenzoyl)amino]-1H-benzo[g]indazole-3-carboxamide] was run?
The IC50 was at most 1000 nM.

How did the IC50 [1] turn out when NC(=O)c1nn(-c2ccc(S(N)(=O)=O)cc2)c2c1ccc1ccc(NC(=O)c3cccnc3)cc12 [Example 13, 1-[4-(aminosulfonyl)phenyl]-8-[(pyridin-3-ylcarbonyl)amino]-1H-benzo[g]indazole-3-carboxamide] was run?
The IC50 was at most 1000 nM.

How did the IC50 [1] turn out when “8-amino-1-{4-[(aminothio)peroxy]phenyl}-1H-benzo[g]indazole-3-carboxamide [Example 4c]” was run?
The IC50 was at most 1000 nM.

For COc1cccc(C(=O)Nc2ccc3ccc4c(C(N)=O)nn(-c5ccc(S(N)(=O)=O)cc5)c4c3c2)c1 [Example 8, 1-[4-(aminosulfonyl)phenyl]-8-[(3-methoxybenzoyl)amino]-1H-benzo[g]indazole-3-carboxamide], which IC50 [1] is on record?
Its IC50 is at most 1000 nM.

For CS(=O)(=O)Nc1ccc2ccc3c(C(N)=O)nn(-c4ccc(S(N)(=O)=O)cc4)c3c2c1 [Example 21, 1-[4-(aminosulfonyl)phenyl]-8-[(methylsulfonyl)amino]-1H-benzo[g]indazole-3-carboxamide], which IC50 [1] is on record?
Its IC50 is at most 1000 nM.

For COc1ccccc1C(=O)Nc1ccc2ccc3c(C(N)=O)nn(-c4ccc(S(N)(=O)=O)cc4)c3c2c1 [Example 25, 1-[4-(aminosulfonyl)phenyl]-8-[(2-methoxybenzoyl)amino]-1H-benzo[g]indazole-3-carboxamide], which IC50 is on record?
Its IC50 is 1000 to 10000 nM.

Which IC50 [1] does the source give for NC(=O)c1nn(-c2ccc(S(N)(=O)=O)cc2)c2c1ccc1ccc(NC(=O)c3cccc(Cl)c3)cc12 [Example 9, 1-[4-(aminosulfonyl)phenyl]-8-[(3-chlorobenzoyl)amino]-1H-benzo[g]indazole-3-carboxamide] here?
The IC50 was at most 1000 nM.

Which IC50 [1] does the source give for NC(=O)c1nn(-c2ccc(S(N)(=O)=O)cc2)c2c1ccc1ccc(NC(=O)c3cccnc3Cl)cc12 [Example 32, 1-[4-(aminosulfonyl)phenyl]-8-{[(2-chloropyridin-3-yl)carbonyl]amino}-1H-benzo[g]indazole-3-carboxamide] here?
Its IC50 is at most 1000 nM.

NC(=O)c1nn(-c2ccc(S(N)(=O)=O)cc2)c2c1ccc1ccc(NC(=O)c3ccccc3F)cc12 [Example 31, 1-[4-(aminosulfonyl)phenyl]-8-[(2-fluorobenzoyl)amino]-1H-benzo[g]indazole-3-carboxamide] was tested. Which IC50 [1] did it give?
The IC50 was at most 1000 nM.

How did the IC50 [1] turn out when NC(=O)c1nn(-c2ccc(S(N)(=O)=O)cc2)c2c1ccc1ccc(NC(=O)c3cccc(C(F)(F)F)c3)cc12 [Example 10, 1-[4-(aminosulfonyl)phenyl]-8-{[3-(trifluoromethyl)benzoyl]amino}-1H-benzo[g]indazole-3-carboxamide] was run?
The IC50 was 1000 to 10000 nM.

With Cc1cccc(C(=O)Nc2ccc3ccc4c(C(N)=O)nn(-c5ccc(S(N)(=O)=O)cc5)c4c3c2)c1 [Example 11, 1-[4-(aminosulfonyl)phenyl]-8-[(3-methylbenzoyl)amino]-1H-benzo[g]indazole-3-carboxamide] as the compound, how does the IC50 [1] read?
The IC50 was at most 1000 nM.

NC(=O)c1nn(-c2ccc(S(N)(=O)=O)cc2)c2c1ccc1ccc(NS(=O)(=O)c3cc(C(F)(F)F)cc(C(F)(F)F)c3)cc12 [Example 24, 1-[4-(aminosulfonyl)phenyl]-8-({[3,5-bis(trifluoromethyl)phenyl]sulfonyl}amino)-1H-benzo[g]indazole-3-carboxamide] was tested. Which IC50 [1] did it give?
The IC50 was 1000 to 10000 nM.
